Laboratory results: ChEMBL document CHEMBL2203039, “Azabenzthiazole inhibitors of leukotriene A₄ hydrolase” (Bioorg Med Chem Lett, 2012)

What was measured:
[1] = target: T1, Leukotriene A-4 hydrolase (Homo sapiens, UniProt P09960); assay: Inhibition of human recombinant LTA4 hydrolase expressed in SF9 cells using LTA4 as substrate assessed as LTB4 production incubated for 10 mins prior to substrate addition measured after 10 to 30 mins by enzyme immunoassay; format: cell-based
T1 sequence (P09960 whole entry): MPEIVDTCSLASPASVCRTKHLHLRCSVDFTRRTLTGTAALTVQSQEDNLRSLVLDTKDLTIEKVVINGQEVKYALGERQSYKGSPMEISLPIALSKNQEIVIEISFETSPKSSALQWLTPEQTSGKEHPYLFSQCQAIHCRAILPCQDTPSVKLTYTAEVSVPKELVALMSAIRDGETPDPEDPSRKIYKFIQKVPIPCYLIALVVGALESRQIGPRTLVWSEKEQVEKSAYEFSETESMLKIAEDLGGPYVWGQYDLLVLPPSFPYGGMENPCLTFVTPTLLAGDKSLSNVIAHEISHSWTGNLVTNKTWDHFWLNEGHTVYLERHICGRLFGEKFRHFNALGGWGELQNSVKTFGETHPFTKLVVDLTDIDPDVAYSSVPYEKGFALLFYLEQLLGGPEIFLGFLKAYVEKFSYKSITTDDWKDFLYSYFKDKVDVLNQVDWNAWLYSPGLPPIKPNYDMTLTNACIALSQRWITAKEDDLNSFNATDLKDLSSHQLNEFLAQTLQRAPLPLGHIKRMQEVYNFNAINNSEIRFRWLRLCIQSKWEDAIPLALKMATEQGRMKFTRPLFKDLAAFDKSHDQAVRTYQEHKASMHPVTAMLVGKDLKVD

[2] = species: Mus musculus; assay: animal or person; format: functional, organism-based; details: Balb/c, Blood
[3] = species: Mus musculus; assay: animal or person; format: functional; details: Balb/c, 3 h, route oral
[4] = target: T2, Voltage-gated inwardly rectifying potassium channel KCNH2 (Homo sapiens, UniProt Q12809); assay: Inhibition of dofetilide binding to human ERG by radioligand binding assay
T2 sequence (Q12809 whole entry): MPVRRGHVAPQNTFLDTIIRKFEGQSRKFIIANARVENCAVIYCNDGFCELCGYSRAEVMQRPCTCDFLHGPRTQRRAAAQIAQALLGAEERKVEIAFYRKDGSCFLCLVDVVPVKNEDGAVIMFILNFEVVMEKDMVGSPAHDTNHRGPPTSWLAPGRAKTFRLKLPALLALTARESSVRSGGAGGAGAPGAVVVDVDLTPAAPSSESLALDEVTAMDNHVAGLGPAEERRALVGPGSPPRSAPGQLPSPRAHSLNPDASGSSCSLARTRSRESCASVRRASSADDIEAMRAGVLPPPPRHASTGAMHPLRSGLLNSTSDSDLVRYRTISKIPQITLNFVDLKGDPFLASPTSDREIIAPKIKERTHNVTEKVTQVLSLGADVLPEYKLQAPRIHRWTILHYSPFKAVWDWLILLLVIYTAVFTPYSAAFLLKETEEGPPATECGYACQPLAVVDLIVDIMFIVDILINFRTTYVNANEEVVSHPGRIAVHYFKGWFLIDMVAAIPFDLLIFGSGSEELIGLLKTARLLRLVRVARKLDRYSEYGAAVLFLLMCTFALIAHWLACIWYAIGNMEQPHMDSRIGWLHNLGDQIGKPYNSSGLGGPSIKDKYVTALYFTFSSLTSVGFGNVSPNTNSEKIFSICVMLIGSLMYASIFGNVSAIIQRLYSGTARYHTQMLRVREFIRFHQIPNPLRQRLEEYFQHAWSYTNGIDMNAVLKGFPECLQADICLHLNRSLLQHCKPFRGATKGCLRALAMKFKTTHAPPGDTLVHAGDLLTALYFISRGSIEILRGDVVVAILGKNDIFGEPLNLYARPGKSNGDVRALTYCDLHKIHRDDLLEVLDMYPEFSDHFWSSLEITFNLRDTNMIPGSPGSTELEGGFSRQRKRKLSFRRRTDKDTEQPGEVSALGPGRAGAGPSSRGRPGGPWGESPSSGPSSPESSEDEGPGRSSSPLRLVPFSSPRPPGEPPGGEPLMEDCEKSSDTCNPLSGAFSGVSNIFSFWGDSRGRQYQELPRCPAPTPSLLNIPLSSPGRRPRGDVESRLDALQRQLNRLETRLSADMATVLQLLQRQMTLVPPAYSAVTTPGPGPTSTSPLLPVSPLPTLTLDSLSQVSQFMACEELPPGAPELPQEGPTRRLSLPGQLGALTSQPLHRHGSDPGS

[5] = species: Mus musculus; assay: animal or person; format: functional; details: Balb/c, Blood, 3 h, route oral
[6] = target: T2, Voltage-gated inwardly rectifying potassium channel KCNH2; assay: Inhibition of human ERG by patch clamp assay
[7] = Volume of distribution at steady state in rat at 2 mg/kg, iv; format: ADME, organism-based; set-up: dose 2 mg/kg, route intravenous; details: in vivo, read-out: Vdss
[8] = Half life in rat at 2 mg/kg, iv; format: ADME, organism-based; set-up: dose 2 mg/kg, route intravenous; details: in vivo
[9] = Oral bioavailability in rat at 10 mg/kg; format: ADME, organism-based; details: in vivo
[10] = Clearance in rat at 2 mg/kg, iv; format: ADME, organism-based; set-up: dose 2 mg/kg, route intravenous; details: in vivo
[11] = Cmax in rat at 10 mg/kg, po; format: ADME, organism-based; set-up: dose 10 mg/kg, route oral; details: in vivo

Row | Structure (SMILES) | IC50 [1] [nM] | IC50 [2] [nM] | inhibition in vivo at 30 mg/kg [3] [%] | IC50 [4] [nM] | inhibition in vivo at 30 mg/kg [5] [%] | IC50 [6] [nM] | Vd [7] [L/kg] | half-life [8] [h] | bioavailability [9] [%] | clearance [10] [mL/min/kg] | Cmax [11] [nM]
1 | NC(=O)C1CCN(Cc2ccc(Oc3nc4cccnc4s3)cc2)CC1 | 733 | 2040 | – | – | – | – | – | – | – | – | –
2 | c1cc2nc(Oc3ccc(CN4CCCCC4)cc3)sc2cn1 | 614 | 723 | – | – | – | – | – | – | – | – | –
3 | c1cc2sc(Oc3ccc(CN4CCCCC4)cc3)nc2cn1 | 1800 | – | – | – | – | – | – | – | – | – | –
4 | Cc1ccnc2nc(Oc3ccc(CN4CCCCC4)cc3)sc12 | – | 82 | 42 | – | 12 | – | – | – | – | – | –
5 | Clc1cnc2nc(Oc3ccc(CN4CCCCC4)cc3)sc2c1 | – | 245 | – | > 10000 | – | – | – | – | – | – | –
6 | NC(=O)C1CCN(CCOc2ccc(Oc3nc4ncccc4s3)cc2)CC1 | 16 | 30 | 71 | > 10000 | 80 | – | – | – | – | – | –
7 | CC(=O)N1CC2CN(CCOc3ccc(Oc4nc5ncccc5s4)cc3)CC2C1 (centres undefined) | 7 | 30 | 86 | > 10000 | 81 | – | – | – | – | – | –
8 | CC(=O)NC1CC2CCC(C1)N2CCOc1ccc(Oc2nc3ncccc3s2)cc1 (centres undefined) | 4 | 24 | 74 | – | 85 | – | – | – | – | – | –
9 | NC(=O)C1CCN(CCc2ccc(Oc3nc4ncccc4s3)cc2)CC1 | 11 | 50 | 60 | > 10000 | 76 | – | – | – | – | – | –
10 | O=C1CCCN1C1CCN(CCc2ccc(Oc3nc4ncccc4s3)cc2)CC1 | 14 | 65 | 75 | – | 86 | 2800 | – | – | – | – | –
11 | CC(=O)N1CC2CC1CN2CCc1ccc(Oc2nc3ncccc3s2)cc1 (centres undefined) | 14 | 30 | 68 | – | 90 | – | – | – | – | – | –
12 | CC(=O)NC1CC2CCC(C1)N2CCc1ccc(Oc2nc3ncccc3s2)cc1 (centres undefined) | 0.3 | – | 78 | – | 85 | – | – | – | – | – | –
13 | CC(=O)NC1CC2CCC(C1)N2Cc1ccc(Oc2nc3ncccc3s2)cc1 (centres undefined) | 1 | 20 | 70 | – | 81 | – | 3.5 | 2 | 65 | 20 | 1200
14 | NC(=O)C1CCN(Cc2ccc(Oc3nc4ncccc4s3)cc2)CC1 | 6 | 37 | 89 | 8900 | 85 | > 10000 | – | – | – | – | –

Continued by falling IC50 [2], values first:

Row | IC50 [1] [nM] | IC50 [2] [nM] | Structure (SMILES) | inhibition in vivo at 30 mg/kg [3] [%] | IC50 [4] [nM] | inhibition in vivo at 30 mg/kg [5] [%] | IC50 [6] [nM] | Vd [7] [L/kg] | half-life [8] [h] | bioavailability [9] [%] | clearance [10] [mL/min/kg] | Cmax [11] [nM]
15 | 6 | 27 | O=C1CCCN1C1CCN(Cc2ccc(Oc3nc4ncccc4s3)cc2)CC1 | 88 | > 10000 | 81 | > 10000 | – | – | – | – | –
16 | – | 24 | c1cnc2nc(Oc3ccc(CCN4CCCCC4)cc3)sc2c1 | 36 | > 10000 | 70 | – | – | – | – | – | –
17 | 6 | 22 | CC(=O)N1CC2CN(CCc3ccc(Oc4nc5ncccc5s4)cc3)CC2C1 (centres undefined) | 79 | > 10000 | 86 | – | – | – | – | – | –
18 | 6 | 20 | O=C1CCCN1C1CCN(CCOc2ccc(Oc3nc4ncccc4s3)cc2)CC1 | 76 | > 10000 | 89 | 2500 | – | – | – | – | –
19 | 8 | 18 | c1cnc2nc(Oc3ccc(OCCN4CCCCC4)cc3)sc2c1 | 62 | – | 65 | – | – | – | – | – | –
20 | 7 | 18 | CC(=O)N1CC2CC1CN2CCOc1ccc(Oc2nc3ncccc3s2)cc1 (centres undefined) | 72 | – | 84 | – | – | – | – | – | –
21 | 3 | 14 | c1cnc2nc(Oc3ccc(CN4CCCCC4)cc3)sc2c1 | 48 | > 10000 | 67 | – | – | – | – | – | –
22 | – | 10 | CC(=O)N1CC2CN(Cc3ccc(Oc4nc5ncccc5s4)cc3)CC2C1 (centres undefined) | 95 | – | 57 | – | – | – | – | – | –
23 | 5 | 7 | CC(=O)N1CC2CC1CN2Cc1ccc(Oc2nc3ncccc3s2)cc1 (centres undefined) | 88 | > 10000 | 92 | > 10000 | 1.4 | 3.3 | 125 | 7 | 3300
